Assay results taken from patent US20250206761A1, “HALOINDOLE MACROCYCLIC COMPOUNDS FOR THE TREATMENT OF CANCER” (Hoffmann-La Roche Inc., priority 2022, published 2025).

Key:
KRAS G12C-BRAF complex = KRAS G12C-BRAF complex (Homo sapiens (Human), UniProt P01116+P62937, G12C); assay: KRAS-BRAF with CYPA (500 nM) interaction assay (TR-FRET), G12C; type: biochemical
Protocol: (§1) In this example, TR-FRET was also used to measure the compound or compound-CYPA dependent disruption of the KRAS G12C-BRAF complex. This protocol was also used to measure disruption of KRAS G12D or KRAS G12V binding to BRAF by a compound of the invention, respectively. In assay buffer containing 25 mM HEPES PH=7.4 (4-(2-hydroxyethyl)-1-piperazineethanesulfonic acid, Thermo, 15630080), 0.002% Tween20, 0.1% BSA, 100 mM NaCl, 5 mM MgCl2, 10 μM GMPPNP (Guanosine 5′-[β,γ-imido]triphosphate trisodium salt hydrate, Sigma, G0635), […] 384-well assay plate at final concentrations of 50 nM, 6.25 nM and 1 nM, respectively. Compound was present in plate wells as a 16-point 3-fold dilution series starting at a final concentration of 10 μM and incubated for 3 hours. A mixture of MAb Anti-6His-XL665 (Cisbio, 61HISXLB) and Mab anti-GST-TB cryptate (Cisbio, 61GSTTLB) was then added at a final concentration of 6.67 nM and 0.21 nM, respectively, and the plate was incubated for an additional 1.5 hours. TR-FRET signal was read on a PHERstar FSX microplate reader (Ex320 nm, Em 665/615 nm). Compounds that facilitate disruption of the KRAS-BRAF complex were identified as those eliciting a decrease in the TR-FRET ratio relative to DMSO control wells.

[1] = molecular target: KRAS G12D binding to BRAF (Homo sapiens (Human), UniProt P01116+P62937, G12D); assay: KRAS-BRAF with CYPA (500 nM) interaction assay (TR-FRET), G12D; type: biochemical
Sequence of KRAS G12D binding to BRAF (P01116-2 other isoform, or with tags, fused parts or gaps G12D): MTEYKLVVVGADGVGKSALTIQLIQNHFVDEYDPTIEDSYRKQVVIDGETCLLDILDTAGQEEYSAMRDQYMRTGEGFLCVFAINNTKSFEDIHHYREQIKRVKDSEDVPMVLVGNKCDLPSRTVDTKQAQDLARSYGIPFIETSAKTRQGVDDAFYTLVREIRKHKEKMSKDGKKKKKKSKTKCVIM
Sequence of KRAS G12D binding to BRAF (P62937 whole entry): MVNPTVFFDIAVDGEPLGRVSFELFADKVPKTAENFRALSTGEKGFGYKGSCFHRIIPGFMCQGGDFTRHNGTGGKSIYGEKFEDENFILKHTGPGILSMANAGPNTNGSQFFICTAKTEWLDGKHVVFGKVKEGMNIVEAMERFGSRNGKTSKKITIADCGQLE
Protocol: as §1

[2] = molecular target: KRAS G12V binding to BRAF (Homo sapiens (Human), UniProt P01116+P62937, G12V); assay: KRAS-BRAF with CYPA (500 nM) interaction assay (TR-FRET), G12V; type: biochemical
Sequence of KRAS G12V binding to BRAF (P01116-2 other isoform, or with tags, fused parts or gaps G12V): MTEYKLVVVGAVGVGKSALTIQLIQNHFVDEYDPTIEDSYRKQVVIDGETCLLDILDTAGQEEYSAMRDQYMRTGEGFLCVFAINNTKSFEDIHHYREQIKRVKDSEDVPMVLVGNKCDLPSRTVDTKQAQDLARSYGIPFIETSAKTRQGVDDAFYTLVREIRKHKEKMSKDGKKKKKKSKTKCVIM
Sequence of KRAS G12V binding to BRAF (P62937 whole entry): as the sequence (P62937 whole entry) above
Protocol: In this example, TR-FRET was also used to measure the compound or compound-CYPA dependent disruption of the KRAS G12C-BRAF complex. This protocol was also used to measure disruption of KRAS G12D or KRAS G12V binding to BRAF by a compound of the invention, respectively. In assay buffer containing 25 mM HEPES PH=7.4 (4-(2-hydroxyethyl)-1-piperazineethanesulfonic acid, Thermo, 15630080), 0.002% Tween20, 0.1% BSA, 100 mM NaCl, 5 mM MgCl2, 10 μM GMPPNP (Guanosine 5′-[β,γ-imido]triphosphate trisodium salt hydrate, Sigma, G0635), […], GMPPNP loaded 6His-KRAS proteins, and […], 6.25 nM and 1 nM, respectively. Compound was present in plate wells as a 16-point 3-fold dilution series starting at a final concentration of 10 μM and incubated for 3 hours. A mixture of MAb Anti-6His-XL665 (Cisbio, 61HISXLB) and Mab anti-GST-TB cryptate (Cisbio, 61GSTTLB) was then added at a final concentration of 6.67 nM and 0.21 nM, respectively, and the plate was incubated for an additional 1.5 hours. TR-FRET signal was read on a PHERstar FSX microplate reader (Ex320 nm, Em 665/615 nm). Compounds that facilitate disruption of the KRAS-BRAF complex were identified as those eliciting a decrease in the TR-FRET ratio relative to DMSO control wells.

[3] = system: phosphorylation of ERK, KRAS G12C in NCJ-H358 cells; assay: pERK inhibition assay, KRAS G12C; type: cell-based, human; conditions: Homo sapiens, 4 hours
Protocol: (§2) This assay is to measure the ability of test compounds in inhibiting the phosphorylation of ERK, the downstream signaling of KRAS G12C in NCJ-H358 cells, KRAS G12D in AGS cells, and KRAS G12V in SW620. NCJ-H358 (ATCC-CRL5807) cells, AGS (ATCC-CRL-1739) cells, SW620 (ATCC-CCL-227) cells were all grown and maintained using RPMI-1640 medium (Thermo Fisher Scientific) with 10% fetal bovine serum and 1% penicillin/streptomycin. On the day prior to compound addition, cells were plated in tissue culture-treated 96 well plates (Corning-3699) at a density of 30,000 cell/well, 20,000 cell/well, 30,000 cell/well for NCJ-H358, AGS and SW620 respectively, and allowed for attachment overnight. Diluted compounds were then added in a final concentration of 0.5% DMSO. After 4 hours of incubation, the medium was removed, 100 μL of 4% formaldehyde was added, and the assay plates were incubated at room temperature for 20 minutes. The plates were then washed once with phosphate buffered saline (PBS), and permeabilized with 100 μL of chilled methanol for 10 minutes. Non-specific antibody binding to the plates was blocked using 50 μL 1×BSA blocking buffer (Thermo-37520, 10-fold dilution by Phosphate-Buffered Saline Tween (PBST) for at least 1 hour at room temperature.
(§3) The amount of phosphor-ERK was determined using an antibody specific for phosphorylated form of ERK. Primary antibody (pERK, CST-4370, Cell Signaling Technology) was diluted 1:300 in blocking buffer, with 50 μL aliquoted to each well, and incubated overnight at 4′° C. Cells was washed five times for 5 minutes with PBST. Secondary antibody ([…] anti-rabbit IgG, CST-7074, Cell Signaling Technology) was diluted 1:1000 in blocking buffer, and 50 μL was added to each well and incubated 1-2 hrs at room temperature. Cells was washed 5 times for 5 minutes with PBST, 100 μL TMB ELISA substrate (abcam-ab171523) were added and gently shake for 20 minutes. 50 μL stop solution (abcam-ab171529) were added, and then read the signal (OD450) by EnVision.
(§4) IC50 was determined by fitting a 4-parameter sigmoidal concentration response model.

[4] = system: phosphorylation of ERK, KRAS G12V in SW620; assay: pERK inhibition assay, KRAS G12V; type: cell-based, human; conditions: Homo sapiens, SW-620, SW620, 4 hours
Protocol: as §2, §3, §4

[5] = system: AGS (ATCC-CRL-1739) cells; assay: Cell viability assay, G12D (AGS); type: cell-based, human; conditions: KRAS cell viability, 72 hrs, Cell Counting Kit-8
Protocol: (§5) The purpose of this cellular assay was to determine the effects of test compounds on the proliferation of human cancer cell lines NCI-H358 (ATCC-CRL5807) cells, AGS (ATCC-CRL-1739) cells, SW620 (ATCC-CCL-227) over a 3-day treatment period by quantifying the amount of NADPH present at endpoint using Cell Counting Kit-8.
(§6) Cells were seeded at 5,000 cells/well (NCI-H358), 2,000 cells/well (AGS) 2,000 cells/well (SW620) in 96-well assay plates (Corning-3699) and incubated overnight. On the day of the assay, diluted compounds were then added in a final concentration of 0.5% DMSO. After 72 hrs incubation, a tenth of the volume of cell counting kit 8 (Dnjindo-CK04) was added into each well. Read the signal (OD450 minus OD650) using EnVision after 2 hrs incubation. IC50 was determined by fitting a 4-parameter sigmoidal concentration response model.

SW620 (ATCC-CCL-227) = assay: Cell viability assay, G12V (SW620); type: cell-based, human; conditions: KRAS cell viability, SW620, 72 hrs, Cell Counting Kit-8
Protocol: as §5, §6

Sequence of KRAS G12C-BRAF complex (P01116-2 other isoform, or with tags, fused parts or gaps G12C): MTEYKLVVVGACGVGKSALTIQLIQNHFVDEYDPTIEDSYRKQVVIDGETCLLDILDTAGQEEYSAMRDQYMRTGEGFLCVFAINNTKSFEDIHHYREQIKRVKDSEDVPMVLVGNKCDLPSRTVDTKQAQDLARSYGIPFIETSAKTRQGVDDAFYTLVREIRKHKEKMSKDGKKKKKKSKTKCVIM
Sequence of KRAS G12C-BRAF complex (P62937 whole entry): as the sequence (P62937 whole entry) above

Row | Structure (SMILES) | IC50 (KRAS G12C-BRAF complex) [nM] | IC50 [1] [nM] | IC50 [2] [nM] | IC50 [3] [nM] | IC50 [4] [nM] | IC50 ([5]; Homo sapiens) [nM] | IC50 (SW620 (ATCC-CCL-227); Homo sapiens, SW-620) [nM] | IC50 [5] [nM] | IC50 (SW620 (ATCC-CCL-227)) [nM]
1 | CCn1c(-c2cc(N3CCN(CC(F)(F)F)CC3)cnc2[C@H](C)OC)c2c3cc(c(F)cc31)-c1csc(n1)C[C@H](NC(=O)[C@H](C(C)C)N1CCCC3(CCN(C(=O)[C@H](F)Cl)CC3)C1=O)C(=O)N1CCC[C@H](N1)C(=O)OCC(C)(C)C2 (atropisomer, axis not shown; (M)) [Example 48, (2S)-2-[9-[(2R)-2-chloro-2-fluoro-acetyl]-1-oxo-2,9-diazaspiro[5.5]undecan-2-yl]-N-[(7S,13S)-21-ethyl-24-fluoro-(20M)-20-[2-[(1S)-1-methoxyethyl]-5-[4-(2,2,2-trifluoroethyl)piperazin-1-yl]-3-pyridyl]-17,17-dimethyl-8,14-dioxo-15-oxa-4-thia-9,21,27,28-tetrazapentacyclo[17.5.2.1^2,5.1^9,13.0^22,26]octacosa-1(25),2,5(28),19,22(26),23-hexaen-7-yl]-3-methyl-butanamide] | 47 | 1030 | > 10000 | 2 | 12 |  |  |  | 
2 | CCn1c(-c2cc(N3CCOCC3)cnc2[C@H](C)OC)c2c3cc(c(F)cc31)-c1csc(n1)C[C@H](NC(=O)[C@H](C(C)C)N1CCC3(CCN(C(=O)[C@H](F)Cl)CC3)C1=O)C(=O)N1CCC[C@H](N1)C(=O)OCC(C)(C)C2 (atropisomer, axis not shown; (M)) [Example 50, (2S)-2-[8-[(2R)-2-chloro-2-fluoro-acetyl]-1-oxo-2,8-diazaspiro[4.5]decan-2-yl]-N-[(7S,13S)-21-ethyl-24-fluoro-(20M)-20-[2-[(1S)-1-methoxyethyl]-5-morpholino-3-pyridyl]-17,17-dimethyl-8,14-dioxo-15-oxa-4-thia-9,21,27,28-tetrazapentacyclo[17.5.2.1^2,5.1^9,13.0^22,26]octacosa-1(25),2,5(28),19,22(26),23-hexaen-7-yl]-3-methyl-butanamide] | 124 | > 10000 | > 10000 | 6 | 6 |  |  |  | 
3 | CCn1c(-c2cc(N3CCN(C)CC3)cnc2[C@H](C)OC)c2c3cc(c(F)cc31)-c1csc(n1)C[C@H](NC(=O)[C@H](COC1CN(C(=O)[C@H](F)Cl)C1)C(C)C)C(=O)N1CCC[C@H](N1)C(=O)OCC(C)(C)C2 (atropisomer, axis not shown; (M)) [Example 41, (2S)-2-[[1-[(2R)-2-chloro-2-fluoro-acetyl]azetidin-3-yl]oxymethyl]-N-[(7S,13S)-21-ethyl-24-fluoro-(20M)-20-[2-[(1S)-1-methoxyethyl]-5-(4-methylpiperazin-1-yl)-3-pyridyl]-17,17-dimethyl-8,14-dioxo-15-oxa-4-thia-9,21,27,28-tetrazapentacyclo[17.5.2.1^2,5.1^9,13.0^22,26]octacosa-1(25),2,5(28),19,22(26),23-hexaen-7-yl]-3-methyl-butanamide] | 88 | > 10000 | 1170 | 107 | 199 |  |  |  | 
4 | CO[C@@H](C)c1ncc(N2CCN(C)CC2)cc1-c1c2c3cc(c(F)cc3n1CC(F)(F)F)-c1csc(n1)C[C@H](NC(=O)[C@H](C(C)C)N1CCC3(CN(C(=O)[C@H](F)Cl)C3)C1=O)C(=O)N1CCC[C@H](N1)C(=O)OCC(C)(C)C2 (atropisomer, axis not shown) [Example 25, (2S)-2-[2-[(2R)-2-chloro-2-fluoro-acetyl]-5-oxo-2,6-diazaspiro[3.4]octan-6-yl]-N-[(7S,13S)-24-fluoro-20-[2-[(1S)-1-methoxyethyl]-5-(4-methylpiperazin-1-yl)-3-pyridyl]-17,17-dimethyl-8,14-dioxo-21-(2,2,2-trifluoroethyl)-15-oxa-4-thia-9,21,27,28-tetrazapentacyclo[17.5.2.1^2,5.1^9,13.0^22,26]octacosa-1(25),2,5(28),19,22(26),23-hexaen-7-yl]-3-methyl-butanamide] | 98 | 6060 | 3540 |  |  | 1650 | 89 |  | 
5 | CCn1c(-c2cc(N3CCN(C)CC3)cnc2[C@H](C)OC)c2c3cc(c(F)cc31)-c1csc(n1)C[C@H](NC(=O)[C@H](C(C)C)N1CCC[C@]3(CCN(C(=O)[C@@H](F)Cl)C3)C1=O)C(=O)N1CCC[C@H](N1)C(=O)OCC(C)(C)C2 [Example 23, (2S)-2-[(5S)-2-[(2S)-2-chloro-2-fluoro-acetyl]-6-oxo-2,7-diazaspiro[4.5]decan-7-yl]-N-[(7S,13S)-21-ethyl-24-fluoro-(20M)-20-[2-[(1S)-1-methoxyethyl]-5-(4-methylpiperazin-1-yl)-3-pyridyl]-17,17-dimethyl-8,14-dioxo-15-oxa-4-thia-9,21,27,28-tetrazapentacyclo[17.5.2.1^2,5.1^9,13.0^22,26]octacosa-1(25),2,5(28),19,22(26),23-hexaen-7-yl]-3-methyl-butanamide] | 64 | 2080 | 5390 |  |  |  |  | 322 | 90
